Where two headings read alike, the source gives them in different places.
Assays:
[1] = test system: ACC1; conditions: ACC1 isolated from rat, mouse, monkey and human; cited from earlier work
[2] = test system: ACC2; conditions: ACC2 isolated from rat, mouse, monkey and human; cited from earlier work
[3] = target: pyruvate carboxylase (Homo sapiens (Human), UniProt P11498); conditions: cited from earlier work
[4] = target: propionyl-CoA carboxylase (Homo sapiens (Human), UniProt P05165+P05166); conditions: cited from earlier work
Sequence of propionyl-CoA carboxylase (P05165 53-728): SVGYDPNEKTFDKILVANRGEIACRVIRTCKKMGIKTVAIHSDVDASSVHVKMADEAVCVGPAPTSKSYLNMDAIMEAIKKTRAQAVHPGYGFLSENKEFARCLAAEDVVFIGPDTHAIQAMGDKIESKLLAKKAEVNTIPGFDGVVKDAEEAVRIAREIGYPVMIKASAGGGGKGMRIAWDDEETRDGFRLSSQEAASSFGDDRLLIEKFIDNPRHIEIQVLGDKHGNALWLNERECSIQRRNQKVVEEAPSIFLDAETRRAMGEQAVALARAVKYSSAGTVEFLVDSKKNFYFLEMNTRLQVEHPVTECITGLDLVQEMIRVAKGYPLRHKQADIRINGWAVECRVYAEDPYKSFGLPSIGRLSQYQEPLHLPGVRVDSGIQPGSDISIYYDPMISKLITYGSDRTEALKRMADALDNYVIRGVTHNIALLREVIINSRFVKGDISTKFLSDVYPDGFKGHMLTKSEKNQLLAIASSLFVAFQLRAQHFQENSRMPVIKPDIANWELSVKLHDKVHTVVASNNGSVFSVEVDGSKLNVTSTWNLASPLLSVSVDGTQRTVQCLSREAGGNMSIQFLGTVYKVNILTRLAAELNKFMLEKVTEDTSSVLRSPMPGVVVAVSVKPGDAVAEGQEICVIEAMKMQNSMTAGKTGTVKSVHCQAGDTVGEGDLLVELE
Sequence of propionyl-CoA carboxylase (P05166 29-539): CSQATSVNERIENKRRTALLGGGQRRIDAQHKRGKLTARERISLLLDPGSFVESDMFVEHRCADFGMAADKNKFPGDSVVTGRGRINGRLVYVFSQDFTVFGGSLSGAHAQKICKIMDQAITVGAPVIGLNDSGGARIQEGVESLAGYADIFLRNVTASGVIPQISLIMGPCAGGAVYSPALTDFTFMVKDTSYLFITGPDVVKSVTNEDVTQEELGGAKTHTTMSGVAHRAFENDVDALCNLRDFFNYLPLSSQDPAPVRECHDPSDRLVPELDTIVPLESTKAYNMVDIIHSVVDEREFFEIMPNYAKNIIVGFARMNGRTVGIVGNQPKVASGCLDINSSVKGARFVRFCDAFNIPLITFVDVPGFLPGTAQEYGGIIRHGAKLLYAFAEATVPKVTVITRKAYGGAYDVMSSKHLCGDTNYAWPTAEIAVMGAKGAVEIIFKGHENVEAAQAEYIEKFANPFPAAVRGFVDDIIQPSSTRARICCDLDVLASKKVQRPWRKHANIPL

[5] = test system: HepG2 cells; test: ACLY HepG2 14C-Pyruvate incorporation assay with serum (IC50 Cholesterol); type: cell-based; conditions: Homo sapiens, table title: with serum, column head: serum free, 96 well
Description: The protocol below was followed:
(§1) 5. […] 6. […] 7. […] 8. […] 9. Repeat the Step 8 10.

[6] = test system: HepG2 cells; test: ACLY HepG2 14C-Pyruvate incorporation assay with serum (IC50 Fatty Acid); type: cell-based; conditions: Homo sapiens, table title: with serum, column head: serum free, 96 well, read-out: ACLY HepG2 14C-Pyruvate Assay serum free IC50 FA 96 well (IC50)
Description: Example 333. ACLY HepG2 ^14C-Pyruvate Incorporation Assay (IC50 Fatty Acid)
as §1

[7] = target: ACLY enzyme, from S100 fraction of rat livers (Rattus norvegicus (Rat), UniProt P16638); test: rACLY S100 14C-Citrate incorporation assay (IC50 Fatty Acid synthesis); type: biochemical; conditions: rat liver S100 fraction; fatty acid labeling from 14C-citrate; read-out: rACLY S100 14C-Citrate FA IC50
Sequence of ACLY enzyme, from S100 fraction of rat livers (P16638 whole entry): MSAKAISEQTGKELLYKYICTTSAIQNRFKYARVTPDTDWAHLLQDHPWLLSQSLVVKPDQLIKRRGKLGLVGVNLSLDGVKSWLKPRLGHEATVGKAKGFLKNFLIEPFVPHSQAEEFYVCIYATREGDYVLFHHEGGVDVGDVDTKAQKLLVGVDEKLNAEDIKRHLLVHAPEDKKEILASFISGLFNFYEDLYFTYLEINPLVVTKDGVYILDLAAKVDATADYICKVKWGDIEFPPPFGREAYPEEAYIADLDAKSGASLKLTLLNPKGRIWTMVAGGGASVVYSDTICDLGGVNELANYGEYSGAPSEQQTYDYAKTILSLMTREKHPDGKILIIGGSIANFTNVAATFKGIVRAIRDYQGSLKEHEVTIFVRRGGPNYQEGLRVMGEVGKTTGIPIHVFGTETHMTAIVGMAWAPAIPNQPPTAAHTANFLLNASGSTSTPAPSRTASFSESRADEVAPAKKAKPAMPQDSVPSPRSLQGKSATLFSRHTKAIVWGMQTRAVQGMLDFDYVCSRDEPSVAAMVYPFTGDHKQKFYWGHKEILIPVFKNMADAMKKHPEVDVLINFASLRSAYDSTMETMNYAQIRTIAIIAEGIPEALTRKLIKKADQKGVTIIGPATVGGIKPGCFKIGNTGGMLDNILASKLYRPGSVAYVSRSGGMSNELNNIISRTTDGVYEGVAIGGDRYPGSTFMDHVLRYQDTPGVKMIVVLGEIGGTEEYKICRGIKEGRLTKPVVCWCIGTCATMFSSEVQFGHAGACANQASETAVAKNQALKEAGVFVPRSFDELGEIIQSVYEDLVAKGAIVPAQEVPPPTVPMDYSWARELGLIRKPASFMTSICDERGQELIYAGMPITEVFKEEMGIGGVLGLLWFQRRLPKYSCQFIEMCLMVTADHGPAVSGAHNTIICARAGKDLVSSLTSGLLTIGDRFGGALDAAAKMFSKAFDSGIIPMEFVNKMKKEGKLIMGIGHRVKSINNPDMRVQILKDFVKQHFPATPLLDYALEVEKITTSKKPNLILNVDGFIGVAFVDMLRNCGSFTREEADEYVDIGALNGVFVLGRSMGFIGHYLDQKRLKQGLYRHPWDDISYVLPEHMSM
Description: Example 336. rACLY S100 ^14C-Citrate Incorporation Assay (IC50 Fatty Acid Synthesis)
Cell-free preparations of liver can synthesize long-chain fatty acids through a pathway which includes the formation of malonyl co-enzyme A (CoA) from acetyl CoA and CO2. The ACLY enzyme, from S100 fraction of rat livers, can transfer CoA, ATP and Citrate to acetyl-CoA, which is the precursor of fatty acid synthesis. Addition of ^14C-citrate to the S100 fraction enables fatty acid labeling from the ACLY reaction, and thus, the effect of ACLY inhibition can be measured in these preparations.
S100 fractions from rat livers were prepared in order to study the effect of ACLY inhibition on fatty acid synthesis using ^14C-citrate as the radiolabel. Fresh livers were excised and quickly homogenized using a 15 ml dounce homogenizer (D9188-1SET from Sigma) in 1 volume of assay buffer containing 0.25 M sucrose, 1 mM potassium citrate, and protease inhibitor cocktail. Homogenates were centrifuged at 20,000×g for 20 min at 4° C. The supernatant was centrifuged at 100,000×g for 2 hours at 4° C. This fraction is S100. For compound addition, 17.5 μL of compound at the desired concentration was added to 350 μL of S100 fraction solution (derived from 0.5 g fresh liver) in 15 mL centrifuge tubes and exposed to air at 37° C. for 30 min. Radiolabeled [^14C]-citrate (60 μL, 3 μCi) was added per tube, plus 40 μL reaction buffer and 3032.5 μL substrate buffer (diluted with reaction buffer, final conc.: 1 mM ATP, 60 μM CoA, 100 μM non-radiolabeled citrate, 0.5% DMSO). Total reaction volume equaled 3.5 mL and was mixed at 37° C. for 2 hours. At the end of the reaction, each sample was saponified at 70° C. for 120 minutes in 1.5 mL of 2.5M NaOH, then cooled to room temperature. Ethanol (2.5 mL) was added to the tubes, and the solution was mixed and allowed to stand overnight. […] Next, samples were acidified in 15 mL tubes directly with 0.6 mL concentrated HCl, to ensure pH<1. Fatty acids were extracted by adding 5 mL of petroleum ether per tube, the tubes were shaken vigorously, then centrifuged at 1000 rpm for 5 min. […]

[8] = target: T1, ACL (Homo sapiens (Human), UniProt P53396); test: ADP-Glo Assay
Target sequence in this assay (P53396 other isoform, or with tags, fused parts or gaps isoform P53396-2): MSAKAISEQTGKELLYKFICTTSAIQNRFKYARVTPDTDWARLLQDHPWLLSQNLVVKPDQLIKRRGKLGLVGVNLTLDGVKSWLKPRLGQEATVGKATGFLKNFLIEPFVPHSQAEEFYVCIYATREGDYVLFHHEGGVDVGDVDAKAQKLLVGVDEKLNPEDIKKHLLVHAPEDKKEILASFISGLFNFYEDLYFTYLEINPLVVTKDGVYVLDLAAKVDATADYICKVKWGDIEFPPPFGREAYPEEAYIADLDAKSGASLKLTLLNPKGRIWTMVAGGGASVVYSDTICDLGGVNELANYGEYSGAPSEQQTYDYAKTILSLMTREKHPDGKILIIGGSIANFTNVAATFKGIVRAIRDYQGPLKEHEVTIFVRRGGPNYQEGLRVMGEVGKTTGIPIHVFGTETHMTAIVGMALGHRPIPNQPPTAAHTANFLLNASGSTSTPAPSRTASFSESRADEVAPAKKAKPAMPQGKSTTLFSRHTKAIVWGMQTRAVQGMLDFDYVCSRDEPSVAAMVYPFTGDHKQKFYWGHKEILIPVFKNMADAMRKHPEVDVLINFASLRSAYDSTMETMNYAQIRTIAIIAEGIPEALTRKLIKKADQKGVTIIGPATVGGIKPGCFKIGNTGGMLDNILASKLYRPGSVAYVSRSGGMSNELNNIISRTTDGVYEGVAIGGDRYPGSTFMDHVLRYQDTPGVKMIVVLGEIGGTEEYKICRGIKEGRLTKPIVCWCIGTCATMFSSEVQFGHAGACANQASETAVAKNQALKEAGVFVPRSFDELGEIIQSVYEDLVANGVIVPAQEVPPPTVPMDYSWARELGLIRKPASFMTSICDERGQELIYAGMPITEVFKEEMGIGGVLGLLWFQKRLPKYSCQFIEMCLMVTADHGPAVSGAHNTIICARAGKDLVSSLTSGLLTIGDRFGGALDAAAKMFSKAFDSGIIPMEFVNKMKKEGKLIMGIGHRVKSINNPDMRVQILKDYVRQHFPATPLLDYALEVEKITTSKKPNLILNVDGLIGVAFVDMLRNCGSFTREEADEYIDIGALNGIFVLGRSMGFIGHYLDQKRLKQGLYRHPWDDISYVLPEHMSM

[9] = target: T1, ACL; test: ACLY-MDH Coupled Assay
Target sequence in this assay (P53396 whole entry, species assumed): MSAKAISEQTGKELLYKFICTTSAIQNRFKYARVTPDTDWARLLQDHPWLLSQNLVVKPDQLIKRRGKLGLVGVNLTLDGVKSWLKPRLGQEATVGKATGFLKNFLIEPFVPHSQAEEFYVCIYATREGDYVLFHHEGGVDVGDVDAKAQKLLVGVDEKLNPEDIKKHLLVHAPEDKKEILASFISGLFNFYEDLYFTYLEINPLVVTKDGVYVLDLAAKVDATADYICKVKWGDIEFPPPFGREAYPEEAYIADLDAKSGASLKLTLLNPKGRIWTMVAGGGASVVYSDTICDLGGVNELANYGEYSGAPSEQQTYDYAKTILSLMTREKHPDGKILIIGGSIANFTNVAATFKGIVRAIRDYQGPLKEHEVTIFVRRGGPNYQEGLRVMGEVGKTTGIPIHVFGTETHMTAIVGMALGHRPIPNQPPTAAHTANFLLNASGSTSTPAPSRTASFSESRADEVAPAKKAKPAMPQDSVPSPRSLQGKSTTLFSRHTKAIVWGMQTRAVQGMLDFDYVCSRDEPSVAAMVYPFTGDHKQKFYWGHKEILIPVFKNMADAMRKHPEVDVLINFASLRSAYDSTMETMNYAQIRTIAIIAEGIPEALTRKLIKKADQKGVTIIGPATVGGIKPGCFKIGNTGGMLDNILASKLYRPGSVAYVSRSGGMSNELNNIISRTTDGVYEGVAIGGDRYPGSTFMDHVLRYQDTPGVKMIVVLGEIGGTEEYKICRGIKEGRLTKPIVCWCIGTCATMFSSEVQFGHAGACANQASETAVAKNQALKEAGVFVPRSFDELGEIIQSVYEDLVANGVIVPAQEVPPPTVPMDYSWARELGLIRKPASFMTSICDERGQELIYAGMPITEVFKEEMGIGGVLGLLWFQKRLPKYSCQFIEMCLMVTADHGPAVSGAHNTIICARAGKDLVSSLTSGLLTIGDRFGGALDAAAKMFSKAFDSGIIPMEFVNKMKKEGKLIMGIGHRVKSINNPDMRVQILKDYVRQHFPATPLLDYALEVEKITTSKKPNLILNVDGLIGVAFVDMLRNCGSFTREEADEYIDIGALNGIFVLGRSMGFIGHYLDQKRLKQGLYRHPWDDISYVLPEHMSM
Description: Compounds of the present invention were evaluated in an ACLY Coupled Assay.
The assay protocol for the Coupled Assay (below) was followed:
b) Add 1 μL cpds to 96 assay plate, Test cpd conc: 100/30/10 μM top dose, 3 folds dilution, 10+0+control (control: buffer without ACL+DMSO) points, 1000 rpm for 1 min, incubation at 25° C. for 60 min

[10] = test system: HepG2 cells; conditions: Homo sapiens, HepG2, read-out: ACLY HepG2 14C-Pyruvate Assay serum free IC50 FA (IC50) [μM]
Description: ACLY HepG2 ^14C-Pyruvate Incorporation Serum-Free Assay (IC50 Fatty
The protocol of the assay (below) was followed:
(§2) After 48 hours, change medium with fresh growth medium.
(§3) After 18 hours, replaced medium using 0.5 mL fresh medium (5.5 mM Glucose, without FBS, 1% PS, without Pyruvate) containing Compounds or 0.5% DMSO, incubated at 37° C., 5% CO2 for 1 hour.
(§4) Add 3 μci of [14C]-pyruvate per well to the cell samples were incubated at 37° C., 5% CO2 for 5 hours.
Medium was removed and placed into a 15 mL centrifuge tube. Add 0.5 mL of 0.1M NaOH to each well and then transfer the cell lysates into the corresponding 15 mL centrifuge tubes. 1.0 mL of EtOH and 0.17 mL 50% KOH were added to 15 mL tubes containing medium and cell suspensions, then shaking tube gently. […] Saponification 15 mL tubes containing medium and cell suspensions were incubated at 90° C. for 1 hour, then cooled to room temperature. […] Cholesterol Extraction 5 mL of petroleum ether was added per tube to extract Cholesterol, shaken vigorously, centrifuged at 1000 rpm for 5 min, and ˜5 mL of the petroleum ether layer was transferred to a new glass tube (18*180 mm). […] Acidification The samples in 15 mL tube were acidified directly with 1 mL concentrated HCl, make sure pH was below 1. […] Fatty Acids Extraction 5 mL of petroleum ether was added per tube, shaken vigorously, centrifuged at 1000 rpm for 5 min, 5 mL of the petroleum ether layer was transferred to the corresponding glass tube. […] Repeat the Step 8 10. Count The petroleum ether extracts were pooled and evaporated to dryness overnight. The residue from the petroleum ether fractions were resuspended in 500 μL of chloroform-hexane (1:1) containing 420 μg of linoleic acid as a carrier. Add 200 μL of resuspending (chloroform-hexane (1:1) containing 168 μg of linoleic acid) to 2 mL Ultima Gold™, after 30 min, count on a scintillation counter.

[11] = test system: HepG2 cells; conditions: Homo sapiens, HepG2, read-out: ACLY HepG2 14C-Pyruvate Assay serum free IC50 Cholesterol (IC50) [μM]
Description: ACLY HepG2 ^14C-Pyruvate Incorporation Serum-Free Assay (IC50 Cholesterol and Fatty Acid Synthesis)
Compounds of the present invention were evaluated in a HepG2 ^14C-pyruvate incorporation assay. The protocol below was followed:
as §2, §3, §4
Medium was removed and placed into a 15 mL centrifuge tube. Add 0.5 mL of 0.1M NaOH to each well and then transfer the cell lysates into the corresponding 15 mL centrifuge tubes. 1.0 mL of EtOH and 0.17 mL 50% KOH were added to 15 mL tubes containing medium and cell suspensions, then shaking tube gently. […] Saponification 15 mL tubes containing medium and cell suspensions were incubated at 90° C. for 1 hour, then cooled to room temperature. […] Cholesterol Extraction 5 mL of petroleum ether was added per tube to extract Cholesterol, shaken vigorously, centrifuged at 1000 rpm for 5 min, and ˜5 mL of the petroleum ether layer was transferred to a new glass tube (18*180 mm). […] Acidification The samples in 15 mL tube were acidified directly with 1 mL concentrated HCl, make sure pH was below 1. […] Fatty Acids Extraction 5 mL of petroleum ether was added per tube, shaken vigorously, centrifuged at 1000 rpm for 5 min, 5 mL of the petroleum ether layer was transferred to the corresponding glass tube. […] Count The petroleum ether extracts were pooled and evaporated to dryness overnight. The residue from the petroleum ether fractions were resuspended in 500 μL of chloroform-hexane (1:1) containing 420 μg of linoleic acid as a carrier. Add 200 μL of resuspending (chloroform-hexane (1:1) containing 168 μg of linoleic acid) to 2 mL Ultima Gold™, after 30 min, count on a scintillation counter.

[12] = read-out: ACL-ADP-Glo (IC50), 3 nM ACL, 15 μM ATP, 3 μM CoA, 300 μM Citrate
[13] = read-out: ACL-MDH Coupled Assay (IC50), 8 nM ACL, 60 μM CoA Na2, 85 μM Citrate, 250 μM ATP, 250 μM NADH

SMILES | IC50 [5] | IC50 [6] | IC50 [7] | IC50 [8] | IC50 [9] | IC50 [10] | IC50 [11] | IC50 [8, 12] | IC50 [9, 13] | IC50 [1] | IC50 [2] | inhibition of pyruvate carboxylase [3] | inhibition of propionyl-CoA carboxylase [4]
O=C(c1c2ccccc2cc2ccccc12)N1CCC(N2CCC[C@@H](C(=O)N3CCOCC3)C2)CC1 [CP-640186] | – | – | – | – | – | – | – | – | – | ~60 nM | ~60 nM | without inhibiting | without inhibiting
O=c1[nH]cc(Cl)cc1S(=O)(=O)Nc1cc(-c2ccccc2)c(F)cc1F [I-298, 5-chloro-N-[4,6-difluoro-[1,1-biphenyl]-3-yl]-2-oxo-1,2-dihydropyridine-3-sulfonamide] | – | – | – | 50 to 500 nM | 50 to 500 nM | > 10 µM | 5 to 20 µM | – | – | – | – | – | –
O=C(Nc1cc(-c2ccccc2)c(F)cc1C(=O)O)c1cc(Cl)cc(Cl)c1 [I-318, 5-(3,5-dichlorobenzamido)-2-fluoro-[1,1′-biphenyl]-4-carboxylic Acid] | – | – | 5000 to 20000 nM | 500 to 20000 nM | 500 to 30000 nM | 1 to 10 µM | 1 to 5 µM | – | – | – | – | – | –
O=C(O)c1ccc(C2CC2)cc1NS(=O)(=O)c1cc(Cl)cc(C(F)(F)F)c1 [I-344, 2-((3-chloro-5-(trifluoromethyl)phenyl)sulfonamido)-4-cyclopropylbenzoic acid] | – | – | – | 500 to 20000 nM | 500 to 30000 nM | 1 to 10 µM | 1 to 5 µM | – | – | – | – | – | –
CCOc1c(Cl)cc(Cl)cc1S(=O)(=O)Nc1cc(-c2ccccc2)ccc1C(=O)O [I-348, 3-((3,5-dichloro-2-ethoxyphenyl)sulfonamido)-[1,1′-biphenyl]-4-carboxylic Acid] | – | – | – | 50 to 500 nM | 50 to 500 nM | 1 to 10 µM | 1 to 5 µM | – | – | – | – | – | –
O=C(Nc1cc(-c2ccccc2)ccc1C(=O)O)c1cc(Cl)cc(C(F)(F)F)c1 [I-349, 3-(3-chloro-5-(trifluoromethyl)benzamido)-[1,1′-biphenyl]-4-carboxylic Acid] | – | – | – | 500 to 20000 nM | 500 to 30000 nM | 1 to 10 µM | 1 to 5 µM | – | – | – | – | – | –
O=C(O)c1c(NS(=O)(=O)c2cc(Cl)cc(Cl)c2)sc2ccccc12 [I-361, 2-((3,5-dichlorophenyl)sulfonamido)benzo[b]thiophene-3-carboxylic acid] | – | – | – | 500 to 20000 nM | 500 to 30000 nM | > 10 µM | 1 to 5 µM | – | – | – | – | – | –
Cc1cc(C(=O)O)c(NS(=O)(=O)c2cc(Cl)cc(C(F)(F)F)c2)cc1-c1ccccc1 [I-364, 5-((3-chloro-5-(trifluoromethyl)phenyl)sulfonamido)-2-methyl-[1,1′-biphenyl]-4-carboxylic Acid] | – | – | – | 500 to 20000 nM | 500 to 30000 nM | 1 to 10 µM | 1 to 5 µM | – | – | – | – | – | –
O=C(O)c1ccc(-c2ccccc2)cc1NS(=O)(=O)c1cccc(-n2cnnn2)c1 [I-372] | – | – | – | 500 to 20000 nM | 500 to 30000 nM | > 10 µM | 1 to 5 µM | – | – | – | – | – | –

Continued, in another order:

IC50 [5] | IC50 [6] | IC50 [7] | IC50 [8] | IC50 [9] | IC50 [10] | IC50 [11] | IC50 [8, 12] | IC50 [9, 13] | SMILES | IC50 [1] | IC50 [2] | inhibition of pyruvate carboxylase [3] | inhibition of propionyl-CoA carboxylase [4]
< 1000 nM | 1000 to 5000 nM | 1000 to 5000 nM | 50 to 500 nM | < 50 nM | 1 to 10 µM | < 1 µM | – | – | O=S(=O)(Nc1cc(-c2ccccc2)ccc1F)c1cc(Cl)cc(Cl)c1O [I-22, 3,5-dichloro-N-(2-fluoro-5-phenylphenyl)-2-hydroxybenzene-1-sulfonamide] | – | – | – | –
< 1000 nM | 1000 to 5000 nM | – | – | – | 1 to 10 µM | < 1 µM | < 50 nM | < 50 nM | CCOC(=O)c1cc(Cl)c(O)c(S(=O)(=O)Nc2cc(-c3ccccc3)c(F)cc2F)c1 [I-84, ethyl 3-chloro-5-[(2,4-difluoro-5-phenylphenyl)sulfamoyl]-4-hydroxybenzoate] | – | – | – | –
< 1000 nM | 1000 to 5000 nM | – | – | – | 1 to 10 µM | < 1 µM | < 50 nM | < 50 nM | O=S(=O)(Nc1cc(-c2ccccc2)c(F)cc1F)c1cc(-c2cncs2)cc(Cl)c1O [I-123, 3-chloro-N-(4,6-difluoro-[1,1′-biphenyl]-3-yl)-2-hydroxy-5-(thiazol-5-yl)benzenesulfonamide] | – | – | – | –
1000 to 5000 nM | 5000 to 20000 nM | – | 50 to 500 nM | 50 to 500 nM | 1 to 10 µM | 1 to 5 µM | – | – | Cc1cc(Cl)c(O)c(S(=O)(=O)Nc2cc(-c3ccccc3)c(F)cc2F)c1 [I-157, 3-chloro-N-(4,6-difluoro-[1,1′-biphenyl]-3-yl)-2-hydroxy-5-methylbenzenesulfonamide] | – | – | – | –
1000 to 5000 nM | 1000 to 5000 nM | – | 50 to 500 nM | 50 to 500 nM | 1 to 10 µM | 1 to 5 µM | – | – | O=C(O)c1ccc(-c2ccccc2)cc1NS(=O)(=O)c1cc(Cl)cc(C(F)(F)F)c1 [I-220, 3-((3-chloro-5-(trifluoromethyl)phenyl)sulfonamido)-[1,1′-biphenyl]-4-carboxylic acid] | – | – | – | –
– | – | – | 50 to 500 nM | 50 to 500 nM | 1 to 10 µM | 1 to 5 µM | – | – | O=C(O)c1ccc(-c2cccs2)cc1NS(=O)(=O)c1cc(Cl)cc(Cl)c1 [I-275, 2-((3,5-dichlorophenyl)sulfonamido)-4-(thiophen-2-yl)benzoic acid] | – | – | – | –
– | – | – | 50 to 500 nM | 50 to 500 nM | 1 to 10 µM | 1 to 5 µM | – | – | COc1c(Cl)cc(Cl)cc1S(=O)(=O)Nc1cc(-c2ccccc2)ccc1C(=O)O [I-281, 3-((3,5-dichloro-2-methoxyphenyl)sulfonamido)-[1,1′-biphenyl]-4-carboxylic Acid] | – | – | – | –
– | – | 1000 to 5000 nM | – | – | 1 to 10 µM | 1 to 5 µM | < 50 nM | < 50 nM | COc1cc(F)c(-c2cc3ccccc3s2)cc1NS(=O)(=O)c1cc(C(=O)N2CCC2)cc(Cl)c1O [I-286] | – | – | – | –
– | – | – | 50 to 500 nM | 50 to 500 nM | 1 to 10 µM | 1 to 5 µM | – | – | O=C(O)c1cc(F)c(-c2ccccc2)cc1NS(=O)(=O)c1cc(Cl)cc(Cl)c1 [I-287, 5-((3,5-dichlorophenyl)sulfonamido)-2-fluoro-[1,1′-biphenyl]-4-carboxylic Acid] | – | – | – | –
– | – | – | 50 to 500 nM | 50 to 500 nM | 1 to 10 µM | 1 to 5 µM | – | – | COc1c(Cl)cc(C(F)(F)F)cc1S(=O)(=O)Nc1cc(-c2ccccc2)ccc1C(=O)O [I-296, 3-((3-chloro-2-methoxy-5-(trifluoromethyl)phenyl)sulfonamido)-[1,1′-biphenyl]-4-carboxylic Acid] | – | – | – | –

— US11555012B2 (Nimbus Artemis, Inc., priority 2018, dated 2023)
